Test results as given in paper PMC7615250 (Cell reports, 2023).

Columns and labels:
NPR-34 = test: Aequorin-based calcium mobilization assay; format: cell-based, C. elegans; conditions: CHO/mtAEQ/Gα16 cells expressing NPR-34; aequorin luminescence; n ≥ 6
SEB-2 = SEB-2 (Caenorhabditis elegans, UniProt P30650); format: cell-based, C. elegans; conditions: n ≥ 6
SEB-2, sequence (P30650 whole entry, looked up): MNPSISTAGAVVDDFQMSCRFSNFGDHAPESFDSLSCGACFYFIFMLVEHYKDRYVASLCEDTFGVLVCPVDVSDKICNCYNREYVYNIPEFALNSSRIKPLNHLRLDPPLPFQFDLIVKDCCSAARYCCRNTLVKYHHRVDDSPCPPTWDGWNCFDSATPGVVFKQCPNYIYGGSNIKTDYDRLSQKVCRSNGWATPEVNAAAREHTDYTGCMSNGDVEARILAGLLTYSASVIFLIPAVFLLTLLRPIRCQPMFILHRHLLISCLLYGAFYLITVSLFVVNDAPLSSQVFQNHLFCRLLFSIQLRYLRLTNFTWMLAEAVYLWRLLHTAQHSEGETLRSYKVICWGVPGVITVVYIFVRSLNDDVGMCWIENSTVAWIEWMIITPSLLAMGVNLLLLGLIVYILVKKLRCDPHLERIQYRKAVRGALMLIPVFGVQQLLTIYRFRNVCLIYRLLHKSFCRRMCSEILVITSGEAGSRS

Substance	receptor activation (calcium response) (NPR-34)	receptor activation (calcium response) (SEB-2)
LDCRKFSFAPACRGIML; C3–C12 (disulfide) [SNET-1]	activate	–
NRQCLLNAGLSQGCDFSDLLHAQTQARKFMSFAGPamide; C4–C14 (disulfide) [NLP-73]	–	activate
